Laboratory results published in PubChem BioAssay (NCI).
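Dose response: 5 concentrations. Exposure: 48 h. Format: 96-well plates. Endpoint: linear interpolation; highest concentration if not reached. The concentration for full growth arrest is given as TGI.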

Experiments:
Assay in all cases: NCI anticancer screen, dose series, 48 h
NCI-H460 lung = tested on: NCI-H460 lung
HT29 colon = tested on: HT29 colon
NCI-H23 lung = tested on: NCI-H23 lung
MCF7 breast = tested on: MCF7 breast
A549 NSCLC = tested on: A549 NSCLC
UO-31 renal = tested on: UO-31 renal
MDA-N = tested on: MDA-N
K-562 leukemia = tested on: K-562 leukemia
M14 melanoma = tested on: M14 melanoma
ACHN renal = tested on: ACHN renal
COLO 205 colon = tested on: COLO 205 colon
HS 578T breast = tested on: HS 578T breast
CCRF-CEM leukemia = tested on: CCRF-CEM leukemia
CAKI-1 renal = tested on: CAKI-1 renal
SK-MEL-28 melanoma = tested on: SK-MEL-28 melanoma
NCI-H226 lung = tested on: NCI-H226 lung
RXF 393 renal = tested on: RXF 393 renal
SK-OV-3 ovarian = tested on: SK-OV-3 ovarian
HOP-92 NSCLC = tested on: HOP-92 NSCLC
LOX IMVI melanoma = tested on: LOX IMVI melanoma
HOP-62 NSCLC = tested on: HOP-62 NSCLC
HCT-116 colon = tested on: HCT-116 colon
SN12C renal = tested on: SN12C renal
HCC-2998 colon = tested on: HCC-2998 colon
DU-145 prostate = tested on: DU-145 prostate
SW-620 colon = tested on: SW-620 colon
EKVX NSCLC = tested on: EKVX NSCLC
786-0 renal = tested on: 786-0 renal
HL-60(TB) leukemia = tested on: HL-60(TB) leukemia
SNB-19 CNS = tested on: SNB-19 CNS
T-47D breast = tested on: T-47D breast
KM12 colon = tested on: KM12 colon
A498 renal = tested on: A498 renal
BT-549 breast = tested on: BT-549 breast
MALME-3M melanoma = tested on: MALME-3M melanoma
SK-MEL-5 melanoma = tested on: SK-MEL-5 melanoma
MOLT-4 leukemia = tested on: MOLT-4 leukemia
SK-MEL-2 melanoma = tested on: SK-MEL-2 melanoma
OVCAR-4 ovarian = tested on: OVCAR-4 ovarian
MDA-MB-435 = tested on: MDA-MB-435
TK-10 renal = tested on: TK-10 renal
SF-295 CNS = tested on: SF-295 CNS
MDA-MB-231 breast = tested on: MDA-MB-231 breast
U251 CNS = tested on: U251 CNS
OVCAR-8 ovarian = tested on: OVCAR-8 ovarian
SF-539 CNS = tested on: SF-539 CNS
SNB-75 CNS = tested on: SNB-75 CNS
SF-268 CNS = tested on: SF-268 CNS
HCT-15 colon = tested on: HCT-15 colon
NCI/ADR-RES ovarian = tested on: NCI/ADR-RES ovarian
UACC-257 melanoma = tested on: UACC-257 melanoma
UACC-62 melanoma = tested on: UACC-62 melanoma
OVCAR-5 ovarian = tested on: OVCAR-5 ovarian
IGROV1 ovarian = tested on: IGROV1 ovarian
SR leukemia = tested on: SR leukemia
OVCAR-3 ovarian = tested on: OVCAR-3 ovarian
NCI-H522 lung = tested on: NCI-H522 lung
RPMI-8226 leukemia = tested on: RPMI-8226 leukemia
PC-3 prostate = tested on: PC-3 prostate

Structure (SMILES): COc1c2c(nc3ccccc13)-c1cc(C(CC(=O)OC(C)(C)C)C(=O)OC(C)C)c(CO)c(=O)n1C2 (stereo not drawn)
- TGI (NCI-H460 lung): > 86.1 µM
- TGI (HT29 colon): > 100 µM
- TGI (NCI-H23 lung): > 100 µM
- TGI (MCF7 breast): 19.3 µM
- TGI (A549 NSCLC): > 100 µM
- TGI (UO-31 renal): > 89.5 µM
- TGI (MDA-N): > 100 µM
- TGI (K-562 leukemia): > 100 µM
- TGI (M14 melanoma): > 100 µM
- TGI (ACHN renal): > 100 µM
- TGI (COLO 205 colon): > 100 µM
- TGI (HS 578T breast): > 100 µM
- TGI (CCRF-CEM leukemia): > 100 µM
- TGI (CAKI-1 renal): > 100 µM
- TGI (SK-MEL-28 melanoma): > 100 µM
- TGI (NCI-H226 lung): > 100 µM
- TGI (RXF 393 renal): > 100 µM
- TGI (SK-OV-3 ovarian): > 100 µM
- TGI (HOP-92 NSCLC): > 100 µM
- TGI (LOX IMVI melanoma): > 100 µM
- TGI (HOP-62 NSCLC): > 100 µM
- TGI (HCT-116 colon): > 100 µM
- TGI (SN12C renal): > 100 µM
- TGI (HCC-2998 colon): > 100 µM
- TGI (DU-145 prostate): > 100 µM
- TGI (SW-620 colon): > 100 µM
- TGI (EKVX NSCLC): > 100 µM
- TGI (786-0 renal): > 100 µM
- TGI (HL-60(TB) leukemia): > 100 µM
- TGI (SNB-19 CNS): > 100 µM
- TGI (T-47D breast): > 100 µM
- TGI (KM12 colon): > 100 µM
- TGI (A498 renal): > 100 µM
- TGI (BT-549 breast): > 100 µM
- TGI (MALME-3M melanoma): > 100 µM
- TGI (SK-MEL-5 melanoma): > 100 µM
- TGI (MOLT-4 leukemia): > 100 µM
- TGI (SK-MEL-2 melanoma): > 100 µM
- TGI (OVCAR-4 ovarian): > 100 µM
- TGI (MDA-MB-435): > 100 µM
- TGI (TK-10 renal): > 100 µM
- TGI (SF-295 CNS): > 100 µM
- TGI (MDA-MB-231 breast): > 100 µM
- TGI (U251 CNS): > 100 µM
- TGI (OVCAR-8 ovarian): > 100 µM
- TGI (SF-539 CNS): 98.4 µM
- TGI (SNB-75 CNS): > 100 µM
- TGI (SF-268 CNS): > 100 µM
- TGI (HCT-15 colon): > 100 µM
- TGI (NCI/ADR-RES ovarian): > 100 µM
- TGI (UACC-257 melanoma): > 100 µM
- TGI (UACC-62 melanoma): 98.3 µM
- TGI (OVCAR-5 ovarian): > 100 µM
- TGI (IGROV1 ovarian): > 100 µM
- TGI (SR leukemia): > 100 µM
- TGI (OVCAR-3 ovarian): > 100 µM
- TGI (NCI-H522 lung): > 100 µM
- TGI (RPMI-8226 leukemia): > 100 µM
- TGI (PC-3 prostate): > 100 µM

Structure (SMILES): Clc1ccc2c(NCCCCN3OC3c3ccccc3)ccnc2c1 (stereo not drawn)
- TGI (NCI-H460 lung): 21.9 µM
- TGI (HT29 colon): 10.9 µM
- TGI (NCI-H23 lung): 35.2 µM
- TGI (MCF7 breast): 17.5 µM
- TGI (A549 NSCLC): 19.2 µM
- TGI (UO-31 renal): 28.6 µM
- TGI (MDA-N): 16.7 µM
- TGI (K-562 leukemia): 4.92 µM
- TGI (M14 melanoma): 6.22 µM
- TGI (ACHN renal): 22.2 µM
- TGI (COLO 205 colon): 7.12 µM
- TGI (HS 578T breast): 35.9 µM
- TGI (CCRF-CEM leukemia): 8.09 µM
- TGI (CAKI-1 renal): 21.8 µM
- TGI (SK-MEL-28 melanoma): 7.42 µM
- TGI (NCI-H226 lung): 37.6 µM
- TGI (RXF 393 renal): 12 µM
- TGI (SK-OV-3 ovarian): 34.5 µM
- TGI (HOP-92 NSCLC): 25.8 µM
- TGI (LOX IMVI melanoma): 5.67 µM
- TGI (HOP-62 NSCLC): 10.9 µM
- TGI (HCT-116 colon): 4.36 µM
- TGI (SN12C renal): 24.7 µM
- TGI (HCC-2998 colon): 11.1 µM
- TGI (DU-145 prostate): 24.9 µM
- TGI (SW-620 colon): 18.5 µM
- TGI (EKVX NSCLC): 38 µM
- TGI (786-0 renal): 6.67 µM
- TGI (HL-60(TB) leukemia): 2.63 µM
- TGI (SNB-19 CNS): 18.9 µM
- TGI (T-47D breast): 16.9 µM
- TGI (KM12 colon): 22.8 µM
- TGI (A498 renal): 12.3 µM
- TGI (BT-549 breast): 27 µM
- TGI (MALME-3M melanoma): 16 µM
- TGI (SK-MEL-5 melanoma): 11.4 µM
- TGI (MOLT-4 leukemia): 9.3 µM
- TGI (SK-MEL-2 melanoma): 11.1 µM
- TGI (OVCAR-4 ovarian): 12 µM
- TGI (MDA-MB-435): 14.5 µM
- TGI (TK-10 renal): 22 µM
- TGI (SF-295 CNS): 26.1 µM
- TGI (MDA-MB-231 breast): 5.92 µM
- TGI (U251 CNS): 9.13 µM
- TGI (OVCAR-8 ovarian): 13.1 µM
- TGI (SF-539 CNS): 3.63 µM
- TGI (SNB-75 CNS): 11.4 µM
- TGI (SF-268 CNS): 27.1 µM
- TGI (HCT-15 colon): 23.5 µM
- TGI (NCI/ADR-RES ovarian): 40.2 µM
- TGI (UACC-257 melanoma): 34.5 µM
- TGI (UACC-62 melanoma): 27.1 µM
- TGI (OVCAR-5 ovarian): 29.8 µM
- TGI (IGROV1 ovarian): 27.7 µM
- TGI (SR leukemia): > 100 µM
- TGI (OVCAR-3 ovarian): 9.33 µM
- TGI (NCI-H522 lung): 16.4 µM
- TGI (RPMI-8226 leukemia): 5.98 µM
- TGI (PC-3 prostate): 26.7 µM
